Data reported in patent US20110053916A1 (Vertex Pharmaceuticals Incorporated, priority 2009, published 2011).

Columns and labels:
PknB = target: T1, PknB (Mycobacterium tuberculosis, UniProt P9WI81); assay: biochemical; design: species or system M. tuberculosis; settings: 3 nM PknB, 6 uM GarA, 3 μM ATP, 30 min, competitive tight-binding fit, several symbols in a cell = repeat determinations; for Ki: read-out: Ki Values
T1 construct: made in house

[1] = test system: Mycobacterium tuberculosis H37Ra; assay: Mycobacterium tuberculosis growth inhibition assay (microtiter dilution, resazurin reduction); assay type: cell-based; settings: 7H9 broth, 9 days + 24 h resazurin, lowest concentration inhibiting resazurin reduction by >70%, several symbols in a cell = repeat determinations
Procedure: Compounds were screened for their ability to inhibit the growth of Mycobacterium tuberculosis H37Ra using a standard microtiter dilution method with reduction of the dye resazurin as an indicator of growth. The growth assay was carried out in standard Mycobacterium liquid growth medium, 7H9Broth (BD Biosciences, Franklin Lakes, N.J.) supplemented with 10% ADC enrichment (BD Biosciences, Franklin Lakes, N.J.). The medium was inoculate with ˜1×10^6 cells/milliliter of Mycobacterium tuberculosis H37Ra grown on a the surface of a growth medium solid medium (7H11 agar [BD Biosciences, Franklin Lakes, N.J.] supplemented with 10% OADC enrichment [BD Biosciences, Franklin Lakes, N.J.]).
Two-fold serial dilutions (either 7 or 11-step series) of test compounds in DMSO were dispensed into 96-well assay plates (sterile, black sided, clear bottom wells) in a volume of 1 microliter. One microliter of DMSO was dispensed into a control well at the end of each series. One-hundred microliters of the bacterial cell suspension in growth medium was dispensed into each test well containing a DSMO solution of compound. The assay plates were covered with a fitted lid and incubated at 37° C. in a humidified chamber for 9 days. On the ninth day 30 microliters of a 0.01% solution of resazurin (Sigma Chemical Co., St. Louis, Mo.) in distilled water was added to each well and the baseline fluorescence of resazurin was determined by measuring well fluorescence at an excitation wavelength of 492 nm and an emission wavelength of 595 nm on a Spectrafluor Plus (Tecan, Durham, N.C.) instrument. The assay plates were returned to the incubation chamber for 24 hours. After 24 hours, the fluorescence of the wells (resulting from the reduction of resazurin dye) was measured at an excitation wavelength of 492 nm and an emission wavelength of 595 nm on the Spectrafluor Plus instrument. The minimum inhibitory concentration (MIC) was called as the lowest concentration of compound that inhibited the reduction of resazurin by >70%, as compared to the DMSO (untreated) control wells. MIC values are represented as the following values: • A* <1.6 μM • A 1.6 μM<12.5 μM • B** 12.5 μM-25.0 μM • B* 25.0 μM-50.0 μM • B 50.0 μM-100.0 μM • C >100.0 μM

T1 sequence (P9WI81 whole entry): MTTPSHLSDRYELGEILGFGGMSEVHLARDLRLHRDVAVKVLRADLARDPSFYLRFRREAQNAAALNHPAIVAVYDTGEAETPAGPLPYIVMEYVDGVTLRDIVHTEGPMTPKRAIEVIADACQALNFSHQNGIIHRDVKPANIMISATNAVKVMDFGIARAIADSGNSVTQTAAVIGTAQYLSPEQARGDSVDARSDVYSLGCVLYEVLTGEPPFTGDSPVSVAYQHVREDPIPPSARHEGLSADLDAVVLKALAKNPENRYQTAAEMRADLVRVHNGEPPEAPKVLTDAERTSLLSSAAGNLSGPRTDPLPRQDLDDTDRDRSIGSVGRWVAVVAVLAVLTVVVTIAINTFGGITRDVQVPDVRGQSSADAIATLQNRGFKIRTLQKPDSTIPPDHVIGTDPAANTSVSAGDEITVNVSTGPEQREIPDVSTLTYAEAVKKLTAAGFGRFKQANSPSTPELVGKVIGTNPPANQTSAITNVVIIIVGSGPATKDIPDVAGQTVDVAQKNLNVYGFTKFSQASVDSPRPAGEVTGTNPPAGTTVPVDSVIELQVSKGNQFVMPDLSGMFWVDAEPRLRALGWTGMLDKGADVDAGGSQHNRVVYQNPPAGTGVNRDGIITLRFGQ

Which “Ki Values” (PknB) does the source give for `C[C@@H](O)c1ccc(-c2ncc(Cl)c(Nc3cc(C4CC4)[nH]n3)n2)s1` (stereo in doubt) [Compound 133, 1-[5-[5-chloro-4-[(5-cyclopropyl-1H-pyrazol-3-yl)amino]-pyrimidin-2-yl]-2-thienyl]ethanol] here?
Its value is “A**, A*”.

What about the MIC values [1] of the same compound?
Its MIC values is “B++”.

`CC(O)c1ccc(-c2ncc(F)c(Nc3cc(C4CC4)[nH]n3)n2)s1` (stereo in doubt) [Compound 144, (S)-1-(5-(4-(5-cyclopropyl-1H-pyrazol-3-ylamino)-5-fluoropyrimidin-2-yl)thiophen-2yl)ethanol] was tested. Which Ki (PknB) did it give?
Its Ki is 10 to 50 nM.

What about the MIC values [1] of the same compound?
Its MIC values is “B++”.

How did the Ki (PknB) turn out when `CC(O)c1ccc(-c2ncc(F)c(Nc3cc(C4CC4)[nH]n3)n2)s1` (stereo in doubt) [Compound 147, (R)-1-(5-(4-(5-cyclopropyl-1H-pyrazol-3-ylamino)-5-fluoropyrimidin-2-yl)thiophen-2-yl)ethanol] was run?
Its Ki is 10 to 50 nM.

What about the MIC values [1] of the same compound?
Its MIC values is “B++”.

Which results are given for `C#Cc1cnc(-c2ccc([C@@H](O)CC)s2)nc1Nc1cc(C2CC2)[nH]n1` (stereo in doubt) [Compound 199, 1-[5-[4-[(5-cyclopropyl-1H-pyrazol-3-yl)amino]-5-ethynyl-pyrimidin-2-yl]-2-thienyl]propan-1-ol]?
Ki Values (PknB): A**, A*; MIC values [1]: B+

Which Ki (PknB) does the source give for `N#CCc1ccc(Nc2nccc(Nc3cc(C4CC4)[nH]n3)n2)cc1` [Compound 1, 2-(4-(4-(5-cyclopropyl-1H-pyrazol-3-ylamino)pyrimidin-2-ylamino)phenyl)acetonitrile] here?
Its Ki is 10 to 50 nM.

And the MIC values [1]?
Its MIC values is “BM, B”.

`NS(=O)(=O)c1ccc(Nc2nccc(Nc3cc(C4CC4)[nH]n3)n2)cc1` [Compound 12, 4-(4-(5-cyclopropyl-1H-pyrazol-3-ylamino)pyrimidin-2-ylamino)benzene sulfonamide] was tested. Which Ki (PknB) did it give?
The Ki was 1 to 10 nM.

What about the MIC values [1] of the same compound?
Its MIC values is “B+”.

`C#Cc1cnc(-c2ccccc2)nc1Nc1cc(C2CC2)[nH]n1` [Compound 14, N-(5-cyclopropyl-1H-pyrazol-3-yl)-5-ethynyl-2-phenylpyrimidin-4-amine] was tested. Which “Ki Values” (PknB) did it give?
The value was “A*, A”.

What about the MIC values [1] of the same compound?
The MIC values was “B+, B”.

For `N#CCc1ccc(-c2ncc(Cl)c(Nc3cc(C4CC4)[nH]n3)n2)cc1` [Compound 18, 2-(4-(5-chloro-4-(5-cyclopropyl-1H-pyrazol-3-ylamino)pyrimidin-2-yl)phenyl)acetonitrile], which “Ki Values” (PknB) is on record?
Its value is “A**, A*”.

And the MIC values [1]?
Its MIC values is “B, B, C”.

Which results are given for `N#CCc1ccc(-c2ncc(F)c(Nc3cc(C4CC4)[nH]n3)n2)cc1` [Compound 19, 2-(4-(4-(5-cyclopropyl-1H-pyrazol-3-ylamino)-5-fluoropyrimidin-2-yl)phenyl)acetonitrile]?
Ki (PknB): 1 to 10 nM; MIC values [1]: B, B, C, C

`C=C(Cl)c1cnc(-c2ccccc2)nc1Nc1cc(C2CC2)[nH]n1` [Compound 21, 5-(1-chlorovinyl)-N-(5-cyclopropyl-1H-pyrazol-3-yl)-2-phenyl-pyrimidin-4-amine] was tested. Which Ki (PknB) did it give?
Its Ki is 500 to 1000 nM.

And the MIC values [1]?
The MIC values was “B+, B, B”.

With `OCc1ccc(-c2ncc(Cl)c(Nc3cc(C4CC4)[nH]n3)n2)s1` [Compound 25, [5-[5-chloro-4-[(5-cyclopropyl-1H-pyrazol-3-yl)amino]-pyrimidin-2-yl]-2-thienyl]methanol] as the compound, how does the Ki (PknB) read?
The Ki was 10 to 50 nM.

What about the MIC values [1] of the same compound?
Its MIC values is “B+”.

`OCc1ccc(-c2ncc(F)c(Nc3cc(C4CC4)[nH]n3)n2)s1` [Compound 26, (5-(4-(5-cyclopropyl-1H-pyrazol-3-ylamino)-5-fluoropyrimidin-2-yl)thiophen-2-yl)methanol] was tested. Which Ki (PknB) did it give?
Its Ki is 10 to 50 nM.

What about the MIC values [1] of the same compound?
The MIC values was “B+”.

For `Cc1cnc(-c2ccc(Cl)c(C(N)=O)c2)nc1Nc1cc(C2CC2)[nH]n1` [Compound 32, 2-chloro-5-[4-[(5-cyclopropyl-1H-pyrazol-3-yl)amino]-5-methyl-pyrimidin-2-yl]-benzamide], which Ki (PknB) is on record?
The Ki was 50 to 100 nM.

What about the MIC values [1] of the same compound?
Its MIC values is “B+”.

Which Ki (PknB) does the source give for `CNS(=O)(=O)c1ccc(-c2ncc(C)c(Nc3cc(C4CC4)[nH]n3)n2)s1` [Compound 33, 5-[4-[(5-cyclopropyl-1H-pyrazol-3-yl)amino]-5-methyl-pyrimidin-2-yl]-N-methyl-thiophene-2-sulfonamide] here?
Its Ki is 10 to 50 nM.

What about the MIC values [1] of the same compound?
Its MIC values is “B+”.

Which results are given for `Cc1cnc(-c2ccc(CO)s2)nc1Nc1cc(C2CC2)[nH]n1` [Compound 36, [5-[4-[(5-cyclopropyl-1H-pyrazol-3-yl)amino]-5-methyl-pyrimidin-2-yl]-2-thienyl]methanol]?
Ki (PknB): 50 to 100 nM; MIC values [1]: B++, B+

What does the source list for `CNS(=O)(=O)c1ccc(-c2ncc(Cl)c(Nc3cc(C4CC4)[nH]n3)n2)s1` [Compound 37, 5-[5-chloro-4-[(5-cyclopropyl-1H-pyrazol-3-yl)amino]-pyrimidin-2-yl]-N-methyl-thiophene-2-sulfonamide]?
Ki (PknB): 1 to 10 nM; MIC values [1]: B+

Which Ki (PknB) does the source give for `Fc1cnc(-c2cccs2)nc1Nc1cc(C2CC2)[nH]n1` [Compound 41, N-(5-cyclopropyl-1H-pyrazol-3-yl)-5-fluoro-2-(thiophen-2-yl)pyrimidin-4-amine] here?
The Ki was 10 to 50 nM.

What about the MIC values [1] of the same compound?
Its MIC values is “B+”.

Which results are given for `CNS(=O)(=O)c1ccc(-c2ncc(F)c(Nc3cc(C4CC4)[nH]n3)n2)s1` [Compound 43, 5-[4-[(5-cyclopropyl-1H-pyrazol-3-yl)amino]-5-fluoro-pyrimidin-2-yl]-N-methyl-thiophene-2-sulfonamide]?
Ki (PknB): 1 to 10 nM; MIC values [1]: B++

How did the Ki (PknB) turn out when `NC(=O)c1cc(-c2nccc(Nc3cc(C4CC4)[nH]n3)n2)ccc1Cl` [Compound 51, 2-chloro-5-[4-[(5-cyclopropyl-1H-pyrazol-3-yl)amino]pyrimidin-2-yl]-benzamide] was run?
Its Ki is 50 to 100 nM.

And the MIC values [1]?
The MIC values was “B++”.

What does the source list for `OC/C=C/c1cnc(-c2ccccc2)nc1Nc1cc(C2CC2)[nH]n1` [Compound 53, (E)-3-(4-(5-cyclopropyl-1H-pyrazol-3-ylamino)-2-phenylpyrimidin-5-yl)prop-2-en-1-ol]?
Ki Values (PknB): A, B**, B**; MIC values [1]: B+

With `CC(C)(C)NS(=O)(=O)c1ccc(-c2ncc(CCO)c(Nc3cc(C4CC4)[nH]n3)n2)s1` [Compound 228, 5-[4-[(5-cyclopropyl-1H-pyrazol-3-yl)amino]-5-(2-hydroxyethyl)pyrimidin-2-yl]-N-tert-butyl-thiophene-2-sulfonamide] as the compound, how does the MIC values [1] read?
Its MIC values is “B+”.

With `NS(=O)(=O)c1cc(-c2nccc(Nc3cc(C4CC4)[nH]n3)n2)ccc1O` [Compound 318, 5-[4-[(5-cyclopropyl-1H-pyrazol-3-yl)amino]pyrimidin-2-yl]-2-hydroxy-benzenesulfonamide] as the compound, how does the Ki (PknB) read?
The Ki was 10 to 50 nM.

For `NS(=O)(=O)c1ccc(-c2ncc(CCCO)c(Nc3cc(C4CC4)[nH]n3)n2)s1` [Compound 319, 5-[4-[(5-cyclopropyl-1H-pyrazol-3-yl)amino]-5-(3-hydroxypropyl)pyrimidin-2-yl]thiophene-2-sulfonamide], which Ki (PknB) is on record?
Its Ki is 1 to 10 nM.

How did the Ki (PknB) turn out when `CC1CC1c1cc(Nc2nc(-c3ccc(S(=O)(=O)NC(C)(C)C)s3)ncc2Cl)n[nH]1` (stereo not shown) [Compound 321, 5-[5-chloro-4-[[5-(2-methylcyclopropyl)-1H-pyrazol-3-yl]amino]-pyrimidin-2-yl]-N-tert-butyl-thiophene-2-sulfonamide] was run?
The Ki was 100 to 500 nM.

`CC(C)(C)OC(=O)Nc1ccc(-c2ncc(Cl)c(Nc3cc(C4CC4)[nH]n3)n2)s1` [Compound 324, tert-butyl [[5-[5-chloro-4-[(5-cyclopropyl-1H-pyrazol-3-yl)amino]-pyrimidin-2-yl]-2-thienyl]amino]formate] was tested. Which Ki (PknB) did it give?
Its Ki is 100 to 500 nM.

How did the Ki (PknB) turn out when `CN1CCN(c2cc(Nc3cc(C4CC4)[nH]n3)nc(-c3ccc(S(N)(=O)=O)s3)n2)CC1` [Compound 325, 5-[4-[(5-cyclopropyl-1H-pyrazol-3-yl)amino]-6-(4-methylpiperazin-1-yl)-pyrimidin-2-yl]thiophene-2-sulfonamide] was run?
The Ki was 100 to 500 nM.

`Cc1cnc(-c2ccc(C(O)CO)s2)nc1Nc1cc(C2CC2)[nH]n1` (stereo not shown) [Compound 326, 1-[5-[4-[(5-cyclopropyl-1H-pyrazol-3-yl)amino]-5-methyl-pyrimidin-2-yl]-2-thienyl]ethane-1,2-diol] was tested. Which Ki (PknB) did it give?
Its Ki is 10 to 50 nM.

With `OCC(O)c1ccc(-c2ncc(Cl)c(Nc3cc(C4CC4)[nH]n3)n2)s1` (stereo not shown) [Compound 327, 1-[5-[5-chloro-4-[(5-cyclopropyl-1H-pyrazol-3-yl)amino]-pyrimidin-2-yl]-2-thienyl]ethane-1,2-diol] as the compound, how does the Ki (PknB) read?
The Ki was 10 to 50 nM.

With `NC(=O)c1ccc(-c2ncc(Cl)c(Nc3cc(C4CC4)[nH]n3)n2)s1` [compound 131, 5-(5-Chloro-4-(5-cyclopropyl-1H-pyrazol-3-ylamino)pyrimidin-2-yl)thiophene-2-carboxamide] as the compound, how does the Ki (PknB) read?
The Ki was 1 to 10 nM.
